In DBAASP:
≈ marks a conversion by molar mass, not a printed value.

Assays:
Test in all cases: ≥ marks a high value that may be exact or a test limit, other limits are often not marked, values filed in µg/mL are converted to µM
[1] = system: Streptococcus sobrinus ATCC 33478
Staphylococcus aureus = system: Staphylococcus aureus
Enterococcus faecalis = system: Enterococcus faecalis
[2] = system: Pseudomonas aeruginosa PAK
Escherichia coli W3110 = system: Escherichia coli W3110
[3] = system: Streptococcus mutans UA159
[4] = system: Streptococcus sanguinis NY101
[5] = system: Staphylococcus xylosus BCRC 12930
[6] = system: Vibrio parahaemolyticus BCRC 10806
[7] = system: Vibrio alginolyticus BCRC 12829
[8] = system: Listeria monocytogenes BCRC 14845
[9] = system: Yersinia enterocolitica BCRC 13999
[10] = system: Staphylococcus aureus BCRC 10780
Streptococcus iniae = system: Streptococcus iniae
Vibrio parahaemolyticus = system: Vibrio parahaemolyticus
[11] = system: Streptococcus equinus BCRC 14729
[12] = system: Vibrio anguillarum serotype O1
Vibrio alginolyticus = system: Vibrio alginolyticus
[13] = system: Enterobacter cloacae BCRC 10401
[14] = system: Klebsiella oxytoca BCRC 13985
[15] = system: Pseudomonas aeruginosa BCRC 10944
Lactococcus garvieae = system: Lactococcus garvieae
[16] = system: Staphylococcus aureus BCRC 10781
[17] = system: Klebsiella aerogenes BCRC 10370
Vibrio harveyi = system: Vibrio harveyi
[18] = system: Escherichia coli BCRC 10675
[19] = system: Streptococcus gordonii Challis DL1
[20] = system: Streptococcus mitis ATCC 903

Row | MIC [1] [µM] | MIC (Staphylococcus aureus) [µM] | MIC (Enterococcus faecalis) [µM] | MIC [2] [µM] | MIC (Escherichia coli W3110) [µM] | MIC [3] [µM] | MIC [4] [µM] | MIC [5] [µM] | MIC [7] [µM] | MIC [8] [µM] | MIC [9] [µM] | MIC [10] [µM] | MIC (Streptococcus iniae) [µM] | MIC [11] [µM] | MIC [12] [µM] | MIC (Vibrio alginolyticus) [µM] | MIC [13] [µM] | MIC [14] [µM] | Structure (SMILES) | MIC [6] [µM] | MIC (Vibrio parahaemolyticus) [µM] | further results
1 | 23.7 (≈ 62.5 µg/mL) | > 190 | ≥ 94.8 | ≥ 190 | ≥ 47.4 | 23.7 (≈ 62.5 µg/mL) | 23.7 (≈ 62.5 µg/mL) | – | – | – | – | – | – | – | – | – | – | – | CC[C@H](C)[C@H](NC(=O)[C@H](Cc1ccccc1)NC(=O)[C@H](Cc1cnc[nH]1)NC(=O)[C@H](CCCCN)NC(=O)[C@@H](NC(=O)[C@H](Cc1ccccc1)NC(=O)[C@@H]1CCCN1C(=O)[C@H](CO)NC(=O)CNC(=O)[C@H](CO)NC(=O)[C@@H]1CCCN1C(=O)[C@H](Cc1ccccc1)NC(=O)[C@H](Cc1cnc[nH]1)NC(=O)[C@H](CC(C)C)NC(=O)[C@H](Cc1cnc[nH]1)NC(=O)[C@H](Cc1ccccc1)NC(=O)[C@H](Cc1cnc[nH]1)NC(=O)[C@@H](N)Cc1ccccc1)[C@@H](C)CC)C(=O)N[C@@H](Cc1cnc[nH]1)C(=O)N[C@@H](CCCN=C(N)N)C(=O)N[C@@H](Cc1ccccc1)C(N)=O [FHFHLHFPSGSPFIKHFIHRF] | – | – | –
2 | – | – | – | – | – | – | – | 6.75 (≈ 16 µg/mL) | 13.5 (≈ 32 µg/mL) | 3.38 (≈ 8 µg/mL) | 27 (≈ 64 µg/mL) | 6.75 (≈ 16 µg/mL) | 13.5 (≈ 32 µg/mL) | ≥ 54 | 3.38 (≈ 8 µg/mL) | 3.38 (≈ 8 µg/mL) | 6.75 (≈ 16 µg/mL) | ≥ 54 | CC[C@H](C)[C@H](NC(=O)[C@H](C)NC(=O)[C@@H](NC(=O)[C@H](Cc1ccc(O)cc1)NC(=O)[C@@H](NC(=O)[C@H](CCCCN)NC(=O)[C@H](CCCCN)NC(=O)[C@H](C)NC(=O)[C@H](Cc1ccccc1)NC(=O)[C@H](CC(N)=O)NC(=O)[C@H](CC(C)C)NC(=O)[C@@H](NC(=O)[C@H](CCCCN)NC(=O)[C@H](CCCCN)NC(=O)[C@H](CC(C)C)NC(=O)[C@H](Cc1ccccc1)NC(=O)[C@@H](NC(=O)[C@H](CC(C)C)NC(=O)CN)[C@@H](C)O)[C@@H](C)CC)[C@@H](C)CC)[C@@H](C)O)C(=O)N[C@@H](Cc1c[nH]c2ccccc12)C(=O)O [GLTFLKKILNFAKKIYTAIW] | 13.5 (≈ 32 µg/mL) | 3.38 (≈ 8 µg/mL) | MIC [15]: 13.5 µM (≈ 32 µg/mL); MIC (Lactococcus garvieae): 13.5 µM (≈ 32 µg/mL); MIC [16]: 6.75 µM (≈ 16 µg/mL); MIC [17]: 6.75 µM (≈ 16 µg/mL); MIC (Vibrio harveyi): 3.38 µM (≈ 8 µg/mL); MIC [18]: 13.5 µM (≈ 32 µg/mL)
3 | ≥ 348 | > 348 | ≥ 348 | ≥ 348 | ≥ 348 | ≥ 348 | ≥ 348 | – | – | – | – | – | – | – | – | – | – | – | NC(=O)CC[C@H](NC(=O)[C@H](Cc1c[nH]c2ccccc12)NC(=O)[C@@H](N)Cc1c[nH]c2ccccc12)C(=O)N[C@@H](CC(=O)O)C(=O)N[C@@H](Cc1c[nH]c2ccccc12)C(=O)N[C@@H](Cc1c[nH]c2ccccc12)C(=O)N[C@@H](CC(N)=O)C(=O)N[C@@H](CCC(=O)O)C(=O)N[C@@H](Cc1c[nH]c2ccccc12)C(N)=O [WWQDWWNEW] | – | – | MIC [19]: ≥ 348 µM; MIC [20]: ≥ 348 µM
4 | 14 (≈ 32 µg/mL) | 27.4 (≈ 62.5 µg/mL) | 14 (≈ 32 µg/mL) | ≥ 110 | ≥ 110 | 7.02 (≈ 16 µg/mL) | 27.4 (≈ 62.5 µg/mL) | – | – | – | – | – | – | – | – | – | – | – | CC[C@H](C)[C@H](NC(=O)[C@H](Cc1cnc[nH]1)NC(=O)[C@H](CCCCN)NC(=O)[C@@H](NC(=O)[C@@H](N)CC(C)C)[C@@H](C)CC)C(=O)N[C@@H](CC(C)C)C(=O)N[C@@H](Cc1cnc[nH]1)C(=O)N[C@@H](CCCN=C(N)N)C(=O)N[C@@H](CC(C)C)C(=O)NCC(=O)NCC(=O)NCC(=O)N[C@@H](Cc1ccccc1)C(=O)N[C@@H](Cc1cnc[nH]1)C(=O)N[C@@H](Cc1ccccc1)C(=O)N[C@@H](Cc1cnc[nH]1)C(=O)N[C@@H](CC(C)C)C(=O)N[C@@H](Cc1cnc[nH]1)C(=O)N[C@@H](Cc1ccccc1)C(N)=O [LIKHILHRLGGGFHFHLHF] | – | – | –
5 | – | – | – | – | – | – | – | 29.4 (≈ 64 µg/mL) | ≥ 58.7 | ≥ 58.7 | ≥ 58.7 | ≥ 58.7 | ≥ 58.7 | ≥ 58.7 | 29.4 (≈ 64 µg/mL) | 29.4 (≈ 64 µg/mL) | 14.7 (≈ 32 µg/mL) | 29.4 (≈ 64 µg/mL) | CC[C@H](C)[C@H](NC(=O)[C@H](CCCCN)NC(=O)[C@@H](NC(=O)[C@@H](NC(=O)[C@@H](NC(=O)[C@H](CCCCN)NC(=O)[C@@H](NC(=O)[C@@H](NC(=O)[C@H](CCCCN)NC(=O)[C@H](CCCCN)NC(=O)[C@H](C)NC(=O)[C@H](Cc1ccc(O)cc1)NC(=O)[C@@H](NC(=O)[C@H](C)NC(=O)CN)[C@@H](C)O)[C@@H](C)CC)[C@@H](C)CC)[C@@H](C)O)[C@@H](C)CC)[C@@H](C)O)C(=O)N[C@@H](C)C(=O)N[C@H](C(=O)N[C@H](C(=O)N[C@@H](C)C(=O)N[C@@H](Cc1c[nH]c2ccccc12)C(=O)O)[C@@H](C)O)[C@@H](C)O [GATYAKKIIKTITKIATTAW] | ≥ 58.7 | 29.4 (≈ 64 µg/mL) | MIC [15]: 29.4 µM (≈ 64 µg/mL); MIC (Lactococcus garvieae): ≥ 58.7 µM; MIC [16]: ≥ 58.7 µM; MIC [17]: 29.4 µM (≈ 64 µg/mL); MIC (Vibrio harveyi): 29.4 µM (≈ 64 µg/mL); MIC [18]: 7.34 µM (≈ 16 µg/mL)
6 | – | – | – | – | – | – | – | 3.04 (≈ 8 µg/mL) | 12.2 (≈ 32 µg/mL) | 12.2 (≈ 32 µg/mL) | ≥ 48.7 | 3.04 (≈ 8 µg/mL) | 12.2 (≈ 32 µg/mL) | ≥ 48.7 | 3.04 (≈ 8 µg/mL) | 3.04 (≈ 8 µg/mL) | 6.09 (≈ 16 µg/mL) | 6.09 (≈ 16 µg/mL) | CC[C@H](C)[C@H](NC(=O)[C@H](Cc1ccc(O)cc1)NC(=O)[C@H](CCCCN)NC(=O)[C@H](Cc1ccccc1)NC(=O)[C@H](Cc1ccccc1)NC(=O)[C@H](CCCCN)NC(=O)[C@H](CC(N)=O)NC(=O)[C@@H](NC(=O)[C@H](Cc1ccc(O)cc1)NC(=O)[C@H](CCCCN)NC(=O)[C@@H](NC(=O)[C@@H](NC(=O)[C@H](CC(N)=O)NC(=O)[C@H](CC(N)=O)NC(=O)[C@@H](NC(=O)[C@H](Cc1ccc(O)cc1)NC(=O)[C@H](CCCCN)NC(=O)[C@H](Cc1ccc(O)cc1)NC(=O)CN)[C@@H](C)CC)[C@@H](C)CC)[C@@H](C)CC)[C@@H](C)CC)C(=O)N[C@@H](Cc1c[nH]c2ccccc12)C(=O)O [GYKYINNIIKYINKFFKYIW] | 12.2 (≈ 32 µg/mL) | 3.04 (≈ 8 µg/mL) | MIC [15]: 12.2 µM (≈ 32 µg/mL); MIC (Lactococcus garvieae): ≥ 48.7 µM; MIC [16]: 3.04 µM (≈ 8 µg/mL); MIC [17]: 6.09 µM (≈ 16 µg/mL); MIC (Vibrio harveyi): 3.04 µM (≈ 8 µg/mL); MIC [18]: 6.09 µM (≈ 16 µg/mL)
